Active and inactive are the calls of the source. No cut-off for these calls is given here.
How the values were obtained:
[1] = Drug recovery in bile duct cannulated rat bile measured for 48 hrs; format: ADME, tissue-based; conditions: read-out: Drug recovery
[2] = Metabolic stability in human hepatocytes assessed as intrinsic clearance per 10^6 cells at 1 uM measured upto 180 mins by LC-MS/MS analysis; format: ADME, cell-based, Hepatocyte; conditions: read-out: CLH
[3] = Drug recovery in bile duct cannulated rat urine measured for 48 hrs; format: ADME, tissue-based; conditions: read-out: Drug recovery
[4] = Inhibition of RSV RNA polymerase assessed as RNA products using […] template by SPA primer extension enzymatic assay; parameters: species or system Respiratory syncytial virus
[5] = Metabolic stability in rat hepatocytes assessed as intrinsic clearance per 10^6 cells at 1 uM measured upto 180 mins by LC-MS/MS analysis; format: ADME, cell-based, Hepatocyte; conditions: read-out: CLH
[6] = Cytotoxicity against human HeLa cells measured after 3 days by ATPlite kit assay; format: toxicity, cell-based; conditions: time 3 day
[7] = Clearance in Sprague-Dawley rat at 1.25 mg/kg, iv; format: ADME, organism-based; conditions: in vivo
[8] = system: Respiratory syncytial virus; experiment: Antiviral activity against Respiratory syncytial virus (RSV)-A2-eGFP infected in human HeLa cells assessed as eGFP expression measured after 3 days by RSV Cell-based infection assay; format: functional, organism-based; conditions: 72 h
[9] = system: Respiratory syncytial virus; experiment: Antiviral activity against Respiratory syncytial virus (RSV) infected in human APC-126 cells assessed as replicon by measuring protein adjusted effective concentration in the presence of 40% human serum measured after 3 days by Renilla Glo assay; format: functional, organism-based; conditions: 72 h
[10] = Metabolic stability in human liver microsomes assessed as intrinsic clearance; format: ADME, Microsome; conditions: read-out: CLH
[11] = Clearance in Balb/c mouse at 2.5 mg/kg, iv measured upto 24 hrs by LC-MS/MS analysis; format: ADME, organism-based; conditions: in vivo
Human orthopneumovirus [12] = experiment: In vivo antiviral activity against Human respiratory syncytial virus (RSV) M37 infected in lamb model assessed as reduction in RSV cells in lung at 0.25 to 4 mg/kg, po QD from 1 until 5 day post infection by branched DNA technology (RNAscope); format: functional, organism-based; conditions: dose 0.25-4 mg/kg
[13] = Volume of distribution at steady state in Beagle dog at 0.5 mg/kg, iv measured upto 24 hrs by LC-MS/MS analysis; format: ADME, organism-based, Canis lupus familiaris; conditions: in vivo, read-out: Vdss
Human orthopneumovirus [14] = experiment: In vivo antiviral activity against Human respiratory syncytial virus (RSV) M37 infected in lamb model assessed as reduction in viral RNA level in lung at 0.25 to 4 mg/kg, po QD from 1 until 5 day post infection by qRT-PCR analysis; format: functional, organism-based; conditions: dose 0.25-4 mg/kg
[15] = Metabolic stability in mouse hepatocytes assessed as intrinsic clearance per 10^6 cells at 1 uM measured upto 180 mins by LC-MS/MS analysis; format: ADME, cell-based, Hepatocyte; conditions: read-out: CLH
[16] = Half life in Balb/c mouse at 2.5 mg/kg, iv measured upto 24 hrs by LC-MS/MS analysis; format: ADME, organism-based; conditions: in vivo
Human orthopneumovirus [17] = experiment: In vivo antiviral activity against Human respiratory syncytial virus (RSV)-A2 intranasally infected in BALB/c mouse assessed as reduction in viral titer in lung treated orally QD 1 hr prior infection until 3 day post infection by plaque assay; format: functional, organism-based; conditions: dose 1-100 mg/kg, route po
[18] = Ratio of drug concentration in Sprague-Dawley rat lung to plasma at 5 mg/kg, po measured upto 24 hrs by LC-MS/MS analysis; format: ADME, organism-based
Human orthopneumovirus [19] = experiment: In vivo antiviral activity against Human respiratory syncytial virus (RSV) M37 infected in lamb model assessed as reduction in microscopic lesions in lung at 1 to 4 mg/kg, po QD from 1 until 5 day post infection; format: functional, organism-based; conditions: dose 1-4 mg/kg
Human orthopneumovirus [20] = experiment: In vivo antiviral activity against Human respiratory syncytial virus (RSV) M37 infected in lamb model assessed as lung histopathology score at 1 to 4 mg/kg, po QD from 1 until 5 day post infection by H and E staining based assay; format: functional, organism-based; conditions: dose 1-4 mg/kg
[21] = Oral bioavailability in Beagle dog at 0.5 mg/kg measured upto 24 hrs by LC-MS/MS analysis; format: ADME, organism-based, Canis lupus familiaris; conditions: in vivo
[22] = Lipophilicity, logD of the compound; format: physicochemical; conditions: octanol/water
[23] = Cmax in Sprague-Dawley rat at 5 mg/kg, po measured upto 24 hrs by LC-MS/MS analysis; format: ADME, organism-based; conditions: in vivo
[24] = Oral bioavailability in Sprague-Dawley rat at 5 mg/kg measured upto 24 hrs by LC-MS/MS analysis; format: ADME, organism-based; conditions: in vivo
[25] = Plasma protein binding in mouse assessed as free fraction; format: ADME, cell-free
[26] = Apparent permeability across apical to basolateral side in dog MDCK-MDR1 cells at 5 uM measured after 60 mins; format: ADME, cell-based, Canis lupus familiaris
[27] = Plasma protein binding in dog assessed as free fraction; format: ADME, cell-free, Canis lupus familiaris
[28] = AUC (0 to last) in Beagle dog at 0.5 mg/kg, po measured upto 24 hrs by LC-MS/MS analysis; format: ADME, organism-based, Canis lupus familiaris; conditions: in vivo
[29] = Clearance in Sprague-Dawley rat at 1.25 mg/kg, iv measured upto 24 hrs by LC-MS/MS analysis; format: ADME, organism-based; conditions: in vivo
Human orthopneumovirus [30] = experiment: In vivo antiviral activity against Human respiratory syncytial virus (RSV)-A2 intranasally infected in BALB/c mouse assessed as reduction in viral RNA level in lung treated orally QD 1 hr prior infection until 3 day post infection by qRT-PCR analysis; format: functional, organism-based; conditions: dose 1-100 mg/kg, route po
[31] = AUC (0 to last) in Sprague-Dawley rat at 5 mg/kg, po measured upto 24 hrs by LC-MS/MS analysis; format: ADME, organism-based; conditions: in vivo
Human orthopneumovirus [32] = experiment: In vivo antiviral activity against Human respiratory syncytial virus (RSV) M37 infected in lamb model assessed as reduction in gross lesions in lung at 1 to 4 mg/kg, po QD from 1 until 5 day post infection; format: functional, organism-based; conditions: dose 1-4 mg/kg
[33] = Cmax in Balb/c mouse at 10 mg/kg, po measured upto 24 hrs by LC-MS/MS analysis; format: ADME, organism-based; conditions: in vivo
Human orthopneumovirus [34] = experiment: In vivo antiviral activity against Human respiratory syncytial virus (RSV) M37 infected in lamb model assessed as reduction in BALF peak viral titer in lung treated orally QD from 1 until 5 day post infection; format: functional, organism-based; conditions: dose 0.4-4 mg/kg, route po
[35] = Half life in Sprague-Dawley rat at 1.25 mg/kg, iv measured upto 24 hrs by LC-MS/MS analysis; format: ADME, organism-based; conditions: in vivo
[36] = Oral bioavailability in Balb/c mouse at 10 mg/kg measured upto 24 hrs by LC-MS/MS analysis; format: ADME, organism-based; conditions: in vivo
[37] = Cmax in Beagle dog at 0.5 mg/kg, po measured upto 24 hrs by LC-MS/MS analysis; format: ADME, organism-based, Canis lupus familiaris; conditions: in vivo
Human orthopneumovirus [38] = experiment: In vivo antiviral activity against Human respiratory syncytial virus (RSV) M37 infected in lamb model assessed as reduction in viral titer in lung treated orally QD from 1 until 5 day post infection; format: functional, organism-based; conditions: dose 0.4-4 mg/kg, route po
[39] = Plasma protein binding in rat assessed as free fraction; format: ADME, cell-free
[40] = Inhibition of human RSV-A strain Memphis 37 RNA polymerase; parameters: species or system Human respiratory syncytial virus A
[41] = Clearance in Beagle dog at 0.5 mg/kg, iv measured upto 24 hrs by LC-MS/MS analysis; format: ADME, organism-based, Canis lupus familiaris; conditions: in vivo
P-glycoprotein = experiment: Efflux ratio of permeability in dog MDCK-MDR1 cells assessed as P-glycoprotein mediated efflux; format: ADME, cell-based, Canis lupus familiaris
[42] = Half life in Beagle dog at 0.5 mg/kg, iv measured upto 24 hrs by LC-MS/MS analysis; format: ADME, organism-based, Canis lupus familiaris; conditions: in vivo
[43] = Volume of distribution at steady state in Sprague-Dawley rat at 1.25 mg/kg, iv measured upto 24 hrs by LC-MS/MS analysis; format: ADME, organism-based; conditions: in vivo, read-out: Vdss
[44] = Plasma protein binding in human assessed as free fraction; format: ADME, cell-free
[45] = Metabolic stability in dog hepatocytes assessed as intrinsic clearance per 10^6 cells at 1 uM measured upto 180 mins by LC-MS/MS analysis; format: ADME, cell-based, Canis lupus familiaris, Hepatocyte; conditions: read-out: CLH
[46] = Volume of distribution at steady state in Balb/c mouse at 2.5 mg/kg, iv measured upto 24 hrs by LC-MS/MS analysis; format: ADME, organism-based; conditions: in vivo, read-out: Vdss
[47] = AUC (0 to last) in Balb/c mouse at 10 mg/kg, po measured upto 24 hrs by LC-MS/MS analysis; format: ADME, organism-based; conditions: in vivo

Structure (SMILES): COc1cc(C(=O)NC[C@](O)(c2cc3c(c(-c4ccc(F)cc4)n2)OC[C@]3(C)NS(C)(=O)=O)C(F)(F)F)cn2cc(CO)nc12
- dose excreted at 48 h [1]: 77%
- hepatocyte CLint at 1 µM [2]: 4.3 µL/min/1e6 cells
- dose excreted at 48 h [3]: 6%
- IC50 [4]: 3.4 nM
- hepatocyte CLint at 1 µM [5]: 20 µL/min/1e6 cells
- CC50 at 72 h [6]: > 90900 nM
- clearance [7]: 51.2 mL/min/kg
- EC50 [8]: 46 nM

Structure (SMILES): COc1cc(C(=O)NC[C@](O)(c2cc(C(C)(C)O)c(F)c(-c3ccc(F)cc3)n2)C(F)(F)F)cc2cc(C)c(C)nc12
- IC50 [4]: 0.96 nM
- CC50 at 72 h [6]: 18400 nM
- EC50 [9]: 61 nM
- microsomal CLint [10]: > 347 µL/min/mg
- EC50 [8]: 8.6 nM

Structure (SMILES): COc1cc(C(=O)NC[C@](O)(c2cc(C(C)(C)O)c(F)c(-c3ccc(F)cc3)n2)C(F)(F)F)cc2cc(C)nnc12
- hepatocyte CLint at 1 µM [2]: < 1.9 µL/min/1e6 cells
- clearance [11]: 10.6 mL/min/kg
- Activity (Human orthopneumovirus [12]): Active
- Vd [13]: 1.49 L/kg
- Activity (Human orthopneumovirus [14]): Active
- hepatocyte CLint at 1 µM [15]: 6.2 µL/min/1e6 cells
- half-life [16]: 1.95 h
- Activity (Human orthopneumovirus [17]): Dose-Dependent Effect
- Kp at 24 h [18]: 1
- Activity (Human orthopneumovirus [19]): Active
- IC50 [4]: 0.29 nM
- Activity (Human orthopneumovirus [20]): Active
- hepatocyte CLint at 1 µM [5]: 27 µL/min/1e6 cells
- bioavailability [21]: 81%
- CC50 at 72 h [6]: 27700 nM
- logD [22]: 3.55
- Cmax [23]: 401 ng/mL
- bioavailability [24]: 20%
- Fu [25]: 0.45%
- Papp A→B at 1 h, 5 µM [26]: 9.8 ×10⁻⁶ cm/s
- Fu [27]: 0.87%
- AUC(0-t) at 24 h [28]: 1200 ng·h/mL
- clearance [29]: 8.03 mL/min/kg
- Activity (Human orthopneumovirus [30]): Dose-Dependent Effect
- AUC(0-t) at 24 h [31]: 2100 ng·h/mL
- Activity (Human orthopneumovirus [32]): Active
- Cmax [33]: 1730 ng/mL
- Activity (Human orthopneumovirus [34]): Dose-Dependent Effect
- half-life [35]: 3.15 h
- bioavailability [36]: 61%
- Cmax [37]: 249 ng/mL
- Activity (Human orthopneumovirus [38]): Dose-Dependent Effect
- Fu [39]: 0.13%
- IC50 [40]: 0.3 nM
- clearance [41]: 5.62 mL/min/kg
- EC50 [9]: 13 nM
- efflux ratio (P-glycoprotein): > 93
- half-life [42]: 4.25 h
- EC50 [8]: 0.82 nM
- Vd [43]: 1.04 L/kg
- Fu [44]: 0.66%
- hepatocyte CLint at 1 µM [45]: 6.4 µL/min/1e6 cells
- Vd [46]: 1.68 L/kg
- AUC(0-t) at 24 h [47]: 9580 ng·h/mL
